Test results taken from article PMC10517462, “Small molecule targeting of the p38/Mk2 stress signaling pathways to improve cancer treatment” (BMC Cancer, 2023).
Read-outs that look alike come from different tables or passages of the source.

Key:
[1] = test system: NCI-H69 cells; assay: FACS-based (DRAQ7) viability assay; assay type: cell-based, human
Description: […] Etoposide, SB203580 and MK2.III were all dissolved in 0.2% of DMSO before use. Cells treated only with the carrier molecule DMSO (0.2%) served as a control.
Viability analysis was performed by staining with the […], stoichiometric DNA stain DRAQ7 (640 or 633 nm excitation and 670 nm emission; Biostatus Limited). After 48-h treatment with DNA damaging agents and/or inhibitors, cells were washed once with RPMI 1640 and resuspended in 1 ml culture media at a concentration of less than 5 × 10^5/ ml. Cells were stained with 20 µM of DRAQ7 and incubated at 37 °C for 10 min before FACS Calibur cytometer analysis. Fluorescent signals were amplified using linear mode. Cell cycle analysis was performed either by staining DRAQ7 or Propidium Iodide (PI). Cells were stained with 20 µM of DRAQ7 and incubated at 37 °C for 10 min before analysis on a FACSCalibur cytometer. Propidium Iodide (PI, excited with 488 nm laser, collected with 585/52 bandpass filter) was used in the large-scale experiments. Samples were then fixed with 70% EtOH following the viability assay and stored at 4 °C overnight before the experiment. After fixation with 70% EtOH (added drop-wise) for 24 h, samples were centrifuged into the pellet and then washed twice with ice-cold PBS. The supernatant was discarded and pellets were resuspended in 100 µl of RNase A (100 µg/ml) and 400 µl of PI ([…] in PBS). Analysis of flow cytometry data was performed using FlowJo software. Untreated, unstained cells were used as a negative control to determine the location of viable cells on the dot plots. Events below a threshold size were interpreted as cellular debris and were removed from the dataset, leaving a whole cell population.

[2] = test system: SW480 colorectal cancer cell line; assay: CCK8 cell viability assay, SW480; assay type: cell-based, human; details: etoposide 150 µM alone, 24 h
Description: (§1) To assess the effect of MK2.III kinase inhibitor and the etoposide (VP-16) on the viability of different cancer cell lines, cells were seeded in 96-well plates in a concentration of 5000 cells per well. After 12 h, etoposide and 1 μM MK2.III diluted in culture media were added into the wells for 24 h. NCI-H69 cells were exposed to a series of etoposide concentrations from 20 μM to 150 μM. MDA-MB-231, SW 620, and SW 480 cell lines were incubated with 150 μM etoposide. After treatment, 10 μL of the CCK-8 reagent (96992, Sigma) was added to each well for 1 h followed by optical density measurement at 450 nm using hybrid plate reader Synergy H1.

[3] = test system: NCI-H69 xenograft; assay: Tumor (xenograft) suppression with combination chemotherapy in SCID mice; assay type: in vivo; details: for Tumor Volume (mm^3) median (25th and 75th quartile): VP-16 12 mg/kg
Description: To establish the most suitable xenograft model for the main experiment we used two mouse lines – BALB/c Nude and SCID (both female, 6 weeks, n = 20, Charles River). Both mouse lines were injected with NCI-H69 cancer cells (xenograft). Before injection, cells were grown at 37 °C in RPMI-1640 medium containing 10% FBS and pen/strep. Cells were mixed with Matrigel (1:1) and depending on the group 5 × 10^6 or 10 × 10^6 cells were injected into a mouse subcutaneously along the spine to the level of the left scapula. Mice were divided into 4 groups: (1) 5 × 10^6 NCI-H69 SCID (n = 5); (2) 5 × 10^6 NCI-H69 Nude (n = 5); (3) 10 × 10^6 NCI-H69 SCID (n = 5); and (4) 10 × 10^6 NCI-H69 Nude (n = 5).
The main experiment (injection of the drugs) took place after the tumor growth was established. The tumor growth in mice following the injection of cells was monitored twice a week and upon reaching the volume of ~ 100 mm^3, animals were randomized into 5 groups (12 female SCID mice in each group). The drug treatment was performed as follows: the first group was a control and received a placebo in the form of PBS (tumor volume 95 ± 38 mm^3); the second group received 12 mg/kg of Etoposide (tumor volume 101 ± 51 mm^3); the third group was injected with 4 mg/kg of MK2.III (tumor volume 105 ± 44 mm^3); fourth and fifth groups were injected with 12 mg/kg of Etoposide and 4 mg/kg or 2 mg/kg of MK2.III (tumor volumes 112 ± 57 and 107 ± 49 mm^3 respectively). Drugs were injected intraperitoneally daily. Etoposide was injected 3 days after the randomization into groups and MK2.III was administered for 28 days. Tumor growth/suppression was measured using calipers every 3–4 days for the duration of the 28-day treatment and the tumor volume was calculated as follows:[…],
Antitumor properties of drugs in the test group were determined based on the slowing of the tumor growth or tumor volume compared with the control group receiving PBS. Animal welfare was monitored throughout the study period to ensure that animals in distress were euthanized by carbon dioxide asphyxiation. All the animals were also euthanized by carbon dioxide asphyxiation following the completion of the study.
Descriptive statistics were used to summarize the tumor size and data reported as medians and 25th and 75th quartiles. Wilcoxon sum rank test was used to investigate the effects of the treatments on tumor growth. […] Statistical analyses were performed on the SigmaPlot 11.0 software.

[4] = test system: NCI-H69 cells; assay: CCK8-based cell viability assay, NCI-H69; parameters: species or system human; details: 24 h
Description: as §1

[5] = test system: NCI-H69 cells; assay: FACS-based cell cycle analysis; parameters: species or system human; details: single treatment, increasing dose
Description: The cells were grown in 12 well plates (Scientific Laboratory Supplies Limited, UK) in RPMI 1640 (Gibco, UK) supplemented with 10% FBS (Autogen Bioclear, UK) and 10,000 U/ml penicillin and 10 mg/ml streptomycin (Sigma, UK) at 37 °C under 5% CO2 and treated with 10, 20, 50, 100 and 150 µM of DNA damaging agent etoposide (VP-16) (Sigma, UK) in the presence or absence of p38MAPK inhibitor SB203580 (Tocris Chemical Co., UK) or MK2 inhibitor MK2.III (Merck, UK) in concentrations of 0, 0.3125, 0.625, 1.25, 2.5, and 5.0 µM. Etoposide, SB203580 and MK2.III were all dissolved in 0.2% of DMSO before use. Cells treated only with the carrier molecule DMSO (0.2%) served as a control.
Viability analysis was performed by staining with the […], stoichiometric DNA stain DRAQ7 (640 or 633 nm excitation and 670 nm emission; Biostatus Limited). After 48-h treatment with DNA damaging agents and/or inhibitors, cells were washed once with RPMI 1640 and resuspended in 1 ml culture media at a concentration of less than 5 × 10^5/ ml. Cells were stained with 20 µM of DRAQ7 and incubated at 37 °C for 10 min before FACS Calibur cytometer analysis. Fluorescent signals were amplified using linear mode. Cell cycle analysis was performed either by staining DRAQ7 or Propidium Iodide (PI). Cells were stained with 20 µM of DRAQ7 and incubated at 37 °C for 10 min before analysis on a FACSCalibur cytometer. […]

[6] = test system: MDA-MB-231 breast cancer cell line; assay: CCK8 cell viability assay, MDA-MB-231; assay type: cell-based, human; details: MK2.III 1 µM or etoposide 150 µM alone, 24 h
Description: as §1

[7] = test system: SW620 colorectal cancer cell line; assay: CCK8 cell viability assay, SW620; assay type: cell-based, human; details: MK2.III 1 µM or etoposide 150 µM alone, 24 h
Description: as §1

C[S+]([O-])c1ccc(-c2nc(-c3ccncc3)c(-c3ccc(F)cc3)[nH]2)cc1 (stereo not shown) [SB203580]
viability at 0.321 µM ([1]; Homo sapiens, NCI-H69, Table 1 dose response, agent alone 0.321 µM (lowest dose), 48 h, read-out: Viable cells (%)): 89% | viability at 0.626 µM ([1]; Homo sapiens, NCI-H69, Table 1 dose response, agent alone 0.626 µM, 48 h, read-out: Viable cells (%)): 89.8% | viability at 1.25 µM ([1]; Homo sapiens, NCI-H69, Table 1 dose response, agent alone 1.25 µM, 48 h, read-out: Viable cells (%)): 89% | viability at 2.5 µM ([1]; Homo sapiens, NCI-H69, Table 1 dose response, agent alone 2.5 µM, 48 h, read-out: Viable cells (%)): 89.4% | viability at 5 µM ([1]; Homo sapiens, NCI-H69, Table 1 dose response, agent alone 5.0 µM (highest dose), 48 h, read-out: Viable cells (%)): 85.1% | Effect on NCI-H69 cell viability compared to the DMSO control ([1]; inhibitor alone at 2.5 µM): did not affect

COc1cc([C@@H]2c3cc4c(cc3[C@@H](O[C@@H]3O[C@@H]5CO[C@@H](C)O[C@H]5[C@H](O)[C@H]3O)[C@H]3COC(=O)[C@H]23)OCO4)cc(OC)c1O [VP-16 (Etoposide), etoposide]
Decrease of viability by single agent [2]: 65% | Difference in tumor size versus control ([3]; at any checkpoint, etoposide 12 mg/kg, MK2.III 4 mg/kg, or etoposide + MK2.III 2 mg/kg): no significant difference | Tumor Volume (mm^3) median (25th and 75th quartile) ([3]; day 11 upon treatment, MK2.III 4 mg/kg IP daily): 556(360;839) mm^3 | Tumor Volume (mm^3) median (25th and 75th quartile) ([3]; day 18 upon treatment, MK2.III 4 mg/kg IP daily): 1219 (995;1387)^*** mm^3 | Tumor Volume (mm^3) median (25th and 75th quartile) ([3]; day -1 upon treatment (baseline), MK2.III 4 mg/kg IP): 93.5 (66;125) mm^3 | viability at 10 µM ([1]; Homo sapiens, NCI-H69, Table 1 dose response, agent alone 10 µM, 48 h, read-out: Viable cells (%)): 75.7% | viability at 20 µM ([1]; Homo sapiens, NCI-H69, Table 1 dose response, agent alone 20 µM, 48 h, read-out: Viable cells (%)): 76.8% | viability at 50 µM ([1]; Homo sapiens, NCI-H69, Table 1 dose response, agent alone 50 µM, 48 h, read-out: Viable cells (%)): 65.2% | viability at 100 µM ([1]; Homo sapiens, NCI-H69, Table 1 dose response, agent alone 100 µM, 48 h, read-out: Viable cells (%)): 61.3% | viability at 150 µM ([1]; Homo sapiens, NCI-H69, Table 1 dose response, agent alone 150 µM, 48 h, read-out: Viable cells (%)): 55.4% | viability at 20 µM ([1]; Homo sapiens, NCI-H69, Table 2, VP-16 20 µM, alone or with MK2.III 1.0 µM or SB203580 2.5 µM, read-out: Viable cells (%)): 57.3% | viability at 50 µM ([1]; Homo sapiens, NCI-H69, Table 2, VP-16 50 µM, alone or with MK2.III 1.0 µM or SB203580 2.5 µM, read-out: Viable cells (%)): 46.4% | viability at 100 µM ([1]; Homo sapiens, NCI-H69, Table 2, VP-16 100 µM, alone or with MK2.III 1.0 µM or SB203580 2.5 µM, read-out: Viable cells (%)): 45.4% | viability at 150 µM ([1]; Homo sapiens, NCI-H69, Table 2, VP-16 150 µM, alone or with MK2.III 1.0 µM or SB203580 2.5 µM, read-out: Viable cells (%)): 37.5% | Percentage of surviving cells ([4]; etoposide 20 µM): 72% | Percentage of surviving cells ([4]; etoposide 150 µM): 36% | Effect on cell cycle profile, single agent [5]: G2 cell cycle arrest | Effect of single agent on viability [6]: did not affect the viability | Decrease of viability by single agent [7]: 50%
